Measured values taken from ChEMBL document CHEMBL5226358, “Discovery of Dimeric Arylsulfonamides as Potent ADAM8 Inhibitors” (ACS Med Chem Lett, 2021).
Active and inactive are the calls of the source. The calls are words filed in the database; no cut-off is given here.

What was measured:
[1] = molecular target: T1, Disintegrin and metalloproteinase domain-containing protein 8 (Homo sapiens) (UniProt P78325); test: Inhibition of ADAM8 in human MDA-MB-231 cells assessed as inhibition of Akt phosphorylation at Ser473 residue at 10 uM incubated for 48 hrs by western blot analysis; assay type: cell-based
T1 sequence (whole entry): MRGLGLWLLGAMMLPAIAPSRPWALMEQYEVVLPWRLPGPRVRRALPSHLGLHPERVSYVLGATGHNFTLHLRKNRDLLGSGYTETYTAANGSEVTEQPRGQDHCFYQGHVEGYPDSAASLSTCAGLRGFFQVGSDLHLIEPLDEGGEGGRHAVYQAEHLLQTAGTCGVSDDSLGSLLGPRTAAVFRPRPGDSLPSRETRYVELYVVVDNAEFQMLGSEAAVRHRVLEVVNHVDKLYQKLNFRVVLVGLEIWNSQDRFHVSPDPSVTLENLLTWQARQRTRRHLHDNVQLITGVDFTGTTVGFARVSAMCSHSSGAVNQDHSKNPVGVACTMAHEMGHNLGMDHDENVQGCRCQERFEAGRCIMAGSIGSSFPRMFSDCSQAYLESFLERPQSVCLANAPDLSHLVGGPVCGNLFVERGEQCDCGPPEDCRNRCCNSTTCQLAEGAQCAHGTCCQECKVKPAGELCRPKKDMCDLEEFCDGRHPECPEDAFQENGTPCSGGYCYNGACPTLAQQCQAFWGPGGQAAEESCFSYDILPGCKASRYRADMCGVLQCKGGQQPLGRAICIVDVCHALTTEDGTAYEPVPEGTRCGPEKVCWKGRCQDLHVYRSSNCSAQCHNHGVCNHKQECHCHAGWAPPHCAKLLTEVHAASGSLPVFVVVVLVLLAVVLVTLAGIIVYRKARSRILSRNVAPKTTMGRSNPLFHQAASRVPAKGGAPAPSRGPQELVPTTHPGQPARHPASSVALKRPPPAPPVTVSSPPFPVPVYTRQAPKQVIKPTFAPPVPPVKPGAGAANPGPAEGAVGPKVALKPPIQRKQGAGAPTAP

[2] = molecular target: T1, Disintegrin and metalloproteinase domain-containing protein 8 (Homo sapiens); test: Inhibition of ADAM8 in human MDA-MB-231 cells assessed as inhibition of ERK1/2 phosphorylation at Thr202/Tyr204 residues at 10 uM incubated for 48 hrs by western blot analysis; assay type: cell-based

O=C(NCCC[C@@H](NS(=O)(=O)c1ccc(OCc2cc(Br)cc(Br)c2)cc1)C(=O)NO)NCCC[C@@H](NS(=O)(=O)c1ccc(OCc2cc(Br)cc(Br)c2)cc1)C(=O)NO
inhibition [1]: inactive
inhibition [2]: inactive

O=C(CCCNC(=O)c1cccc(C(=O)NCCCC(=O)NCCC[C@@H](NS(=O)(=O)c2ccc(OCc3cc(Br)cc(Br)c3)cc2)C(=O)NO)c1)NCCC[C@@H](NS(=O)(=O)c1ccc(OCc2cc(Br)cc(Br)c2)cc1)C(=O)NO
inhibition [1]: inactive
inhibition [2]: inactive

O=C(NCCC[C@@H](NS(=O)(=O)c1ccc(OCc2cc(Br)cc(Br)c2)cc1)C(=O)NO)c1cccc(C(=O)NCCC[C@@H](NS(=O)(=O)c2ccc(OCc3cc(Br)cc(Br)c3)cc2)C(=O)NO)c1
inhibition [1]: inactive
inhibition [2]: inactive
